These results are taken from patent US20260242343A1, “COMPOUND SERVING AS DDR1 KINASE INHIBITOR, AND MEDICINE” (NIPPON SHINYAKU CO., LTD., priority 2022, published 2026).

One assay addresses T1, DDR1 protein (Homo sapiens, UniProt Q08345).
T1 construct: purchased Carna Biosciences 08-113
Description: Evaluation of DDR1 kinase inhibitory activity (LANCE Ultra TR-FRET). The following applies: DDR1 protein 0.5 nM, ATP 100 μM, 2 hours at room temperature; read-out: DDR-1 IC50. It is filed as biochemical. Here is the method: The test was performed in duplicate.
On the technique in general: TR-FRET usually uses a lanthanide donor and a delayed reading to cut background.

Assay [1] addresses T2, DDR1 kinase in DDR1-expressing U2OS cells (Homo sapiens, UniProt Q08345).
T2 construct: host or cells: U2OS
The assay is described as follows: DDR1 kinase inhibitory effect in DDR1-expressing U2OS cells (PathHunter, type I collagen stimulation). The assay is classed as cell-based. Particulars: type I collagen 50 μg/mL, 10% FBS, read-out: DDR-1 IC50. Here is the method: Test compounds in DMSO were prepared at 10 mM and diluted with DMSO to final concentrations of 1000, 100, 10, 1, and 0.1 μM. These solutions were diluted further with E-MEM medium (Fujifilm Wako Pure Chemical Industries, 051-07615) containing 10% fetal bovine serum (FBS, Gibco, 10270106) to 60,000, 6,000, 600, 60, 6, and 0.6 nM to obtain test sample solutions.
DDR1-expressing U2OS cells (DiscoverX, 93-0894C3) suspended at 2.5×10^5 cells/mL in 10% FBS+E-MEM medium were seeded in 384-well plates (DiscoverX, 92-0013) in 20 μL portions and cultured overnight at 37° C. and 5% CO2.
The next day, the test sample solutions as prepared were added at 5 μL/well to final concentrations of 10,000, 1,000, 100, 10, 1, and 0.1 nM. After incubation at 37° C. and 5% CO2 for 1 hour, type I collagen (Nitta Gelatin, 631-00771) was added at 5 μL/well to a final concentration of 50 μg/mL, and cultured overnight at 37° C. and 5% CO2.
The next day, the plate was left at room temperature for 1 hour, after which 5 μL/well of detection solution was added according to the instruction manual for the PathHunter (registered trademark) Detection Kit (DiscoverX, 93-0001). […] The test was performed in duplicate.

For orientation: IC50 means the concentration at which inhibition is half-maximal.

Each structure is given as a SMILES string. Counter-ions that a name gives are not always drawn.

T1 sequence (Q08345 19-876 isoform Q08345-2 limits assumed): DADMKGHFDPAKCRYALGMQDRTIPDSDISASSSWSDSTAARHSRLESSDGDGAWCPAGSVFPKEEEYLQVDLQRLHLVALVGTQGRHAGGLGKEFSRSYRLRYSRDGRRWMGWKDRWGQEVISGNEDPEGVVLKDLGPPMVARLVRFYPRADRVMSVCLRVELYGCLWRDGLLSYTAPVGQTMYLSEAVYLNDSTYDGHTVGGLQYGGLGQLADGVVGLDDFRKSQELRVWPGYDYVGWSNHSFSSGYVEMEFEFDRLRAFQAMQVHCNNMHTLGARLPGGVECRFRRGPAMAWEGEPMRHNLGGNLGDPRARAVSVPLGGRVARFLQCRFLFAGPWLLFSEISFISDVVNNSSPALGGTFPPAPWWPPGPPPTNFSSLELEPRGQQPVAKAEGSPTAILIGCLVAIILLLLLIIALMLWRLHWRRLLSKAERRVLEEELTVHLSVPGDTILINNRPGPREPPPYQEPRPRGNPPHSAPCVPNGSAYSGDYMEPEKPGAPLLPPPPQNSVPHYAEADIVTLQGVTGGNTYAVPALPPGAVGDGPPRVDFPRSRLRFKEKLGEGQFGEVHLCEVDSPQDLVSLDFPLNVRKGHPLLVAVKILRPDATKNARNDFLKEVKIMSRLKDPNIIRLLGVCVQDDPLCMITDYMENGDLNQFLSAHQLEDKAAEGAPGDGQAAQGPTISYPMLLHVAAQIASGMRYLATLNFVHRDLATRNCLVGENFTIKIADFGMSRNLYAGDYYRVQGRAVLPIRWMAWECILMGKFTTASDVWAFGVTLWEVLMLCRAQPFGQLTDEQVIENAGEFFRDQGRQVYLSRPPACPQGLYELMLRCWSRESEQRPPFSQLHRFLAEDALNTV
T2 sequence (Q08345 19-913): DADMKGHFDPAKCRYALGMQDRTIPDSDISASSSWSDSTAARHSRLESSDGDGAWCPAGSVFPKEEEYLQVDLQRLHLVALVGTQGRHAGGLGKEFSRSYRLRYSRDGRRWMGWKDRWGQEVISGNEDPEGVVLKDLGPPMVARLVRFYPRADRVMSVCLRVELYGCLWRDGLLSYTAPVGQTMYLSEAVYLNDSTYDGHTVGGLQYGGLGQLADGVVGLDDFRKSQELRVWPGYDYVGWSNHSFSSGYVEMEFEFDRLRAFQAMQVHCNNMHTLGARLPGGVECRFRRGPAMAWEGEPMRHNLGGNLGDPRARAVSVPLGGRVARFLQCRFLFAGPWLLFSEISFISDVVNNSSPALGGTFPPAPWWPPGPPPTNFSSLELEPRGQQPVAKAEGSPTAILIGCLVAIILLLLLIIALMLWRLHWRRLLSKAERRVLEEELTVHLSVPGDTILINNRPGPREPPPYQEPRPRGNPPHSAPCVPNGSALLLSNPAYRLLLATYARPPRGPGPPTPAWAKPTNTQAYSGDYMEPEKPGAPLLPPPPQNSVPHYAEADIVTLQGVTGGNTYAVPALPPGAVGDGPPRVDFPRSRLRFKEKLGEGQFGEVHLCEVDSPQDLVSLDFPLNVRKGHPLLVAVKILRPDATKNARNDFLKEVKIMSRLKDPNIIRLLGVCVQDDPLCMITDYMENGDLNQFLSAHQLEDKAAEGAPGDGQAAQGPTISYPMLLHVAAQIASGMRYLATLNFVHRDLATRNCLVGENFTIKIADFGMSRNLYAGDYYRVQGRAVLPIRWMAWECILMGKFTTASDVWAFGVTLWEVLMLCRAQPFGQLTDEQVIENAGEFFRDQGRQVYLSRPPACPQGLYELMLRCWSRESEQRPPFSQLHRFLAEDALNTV

For `Nc1ncc(/C(F)=C/c2cc(C(=O)N[C@H](CO)c3cccc(F)c3)ccc2OC(F)F)cn1` [Example 34, 3-[(1Z)-2-(2-Aminopyrimidin-5-yl)-2-fluoroethenyl]-4-(difluoromethoxy)-N-[(1S)-1-(3-fluorophenyl)-2-hydroxyethyl]benzamide], the IC50 on DDR1 protein is 8.2 nM; in assay [1], 44 nM.
With `Nc1cnc(/C(F)=C/c2cc(C(=O)N[C@H]3CC4(CC4)C[C@@H]3O)ccc2OC(F)F)cn1` [Example 26, 3-[(1Z)-2-(5-Aminopyrazin-2-yl)-2-fluoroethenyl]-4-(difluoromethoxy)-N-[(5S,6S)-6-hydroxyspiro[2.4]heptan-5-yl]benzamide], the IC50 at DDR1 protein came out at 5.1 nM; in assay [1], 20 nM.
Turning to `NC(=O)c1ncc2cc(-c3cc(C(=O)N[C@H](CO)CCOC(F)(F)F)cnc3C(F)(F)F)ccn12` [Example 30, 5-{3-Carbamoylimidazo[1,5-a]pyridin-7-yl}-N-[(2S)-1-hydroxy-4-(trifluoromethoxy)butan-2-yl]-6-(trifluoromethyl)pyridine-3-carboxamide], the IC50 came out at 18 nM at DDR1 protein and 78 nM in assay [1].
As to `Nc1ncc(/C=C(\F)c2cc(C(=O)N[C@H](CO)CCOC(F)(F)F)ccc2OC(F)F)cn1` [Example 12, 3-[(1Z)-2-(2-Aminopyrimidin-5-yl)-1-fluoroethenyl]-4-(difluoromethoxy)-N-[(2S)-1-hydroxy-4-(trifluoromethoxy)butan-2-yl]benzamide], the results for the IC50 (on DDR1 protein; in assay [1]) were 1.1 nM and 14 nM, respectively.
For `Nc1ncc(C#Cc2cc(C(=O)N[C@H](CO)Cc3ccc(Cl)cc3)ccc2OC(F)F)cn1` [Example 35, 3-[2-(2-Aminopyrimidin-5-yl)ethynyl]-N-[(2S)-1-(4-chlorophenyl)-3-hydroxypropan-2-yl]-4-(difluoromethoxy)benzamide hydrochloride], in that order: 3.3 nM and 12 nM.
Turning to `NC(=O)c1ncc2cc(-c3cc(C(=O)N[C@H]4C[C@H](OC(F)(F)F)C[C@@H]4O)cnc3C(F)(F)F)ccn12` [Example 15, 5-{3-Carbamoylimidazo[1,5-a]pyridin-7-yl}-N-[(1S,2S,4S)-2-hydroxy-4-(trifluoromethoxy)cyclopentyl]-6-(trifluoromethyl)pyridine-3-carboxamide], the IC50 on DDR1 protein was found to be 2.2 nM; in assay [1], 14 nM.
For `Nc1ncc(/C(F)=C/c2cc(C(=O)N[C@H]3CCCC[C@@H]3O)ccc2OC(F)F)cn1` [Example 38, 3-[(1Z)-2-(2-Aminopyrimidin-5-yl)-2-fluoroethenyl]-4-(difluoromethoxy)-N-[(1S,2S)-2-hydroxycyclohexyl]benzamide], in that order: 12 nM and 99 nM.
Take `COc1cncc(/C=C(\F)c2cc(C(=O)N[C@H]3C[C@H](OC(F)(F)F)C[C@@H]3O)cc(F)c2OC(F)F)c1` [Example 13, 4-(Difluoromethoxy)-3-fluoro-5-[(1Z)-1-fluoro-2-(5-methoxypyridin-3-yl)ethenyl]-N-[(1S,2S,4S)-2-hydroxy-4-(trifluoromethoxy)cyclopentyl]benzamide]: the IC50 at DDR1 protein was determined as 0.87 nM; in assay [1] it was 1.9 nM.
For `NC(=O)c1ncc2cc(-c3cc(C(=O)N[C@H]4CC5(CC5)C[C@@H]4O)ccc3C(F)(F)F)ccn12` [Example 28, 7-(5-{[(5S,6S)-6-Hydroxyspiro[2.4]heptan-5-yl]carbamoyl}-2-(trifluoromethyl)phenyl)imidazo[1,5-a]pyridine-3-carboxamide], the IC50 on DDR1 protein amounted to 0.86 nM; in assay [1], 7.8 nM.
For `Nc1ncc(C#Cc2cc(C(=O)N[C@H]3CC(F)(F)CC[C@@H]3O)ccc2OC(F)F)cn1` [Example 20, 3-[2-(2-Aminopyrimidin-5-yl)ethynyl]-N-[(1S,2S)-5,5-difluoro-2-hydroxycyclohexyl]-4-(difluoromethoxy)benzamide p-toluenesulfonate], in that order: 3.1 nM and 16 nM.
`Nc1ncc(C#Cc2cc(C(=O)N[C@H]3CC4(CC4)C[C@@H]3O)ccc2OC(F)F)cn1` [Example 21, 3-[2-(2-Aminopyrimidin-5-yl)ethynyl]-4-(difluoromethoxy)-N-[(5S,6S)-6-hydroxyspiro[2.4]heptan-5-yl]benzamide]: the IC50 at DDR1 protein turned out to be 0.27 nM; in assay [1], 11 nM.
For `NC(=O)c1ncc2cc(-c3cc(C(=O)N[C@H]4CC(F)(F)CC[C@@H]4O)cnc3C(F)(F)F)ccn12` [Example 41, 5-{3-Carbamoylimidazo[1,5-a]pyridin-7-yl}-N-[(1S,2S)-5,5-difluoro-2-hydroxycyclohexyl]-6-(trifluoromethyl)pyridine-3-carboxamide], in that order: 60 nM and 350 nM.
As to `CCc1ccc(C(=O)N[C@H]2C[C@H](OC(F)(F)F)C[C@@H]2O)cc1NC(=O)c1cncc(OCC2CC2)c1` [Example 42, 5-(Cyclopropylmethoxy)-N-(2-ethyl-5-{[(1S,2S,4S)-2-hydroxy-4-(trifluoromethoxy)cyclopentyl]carbamoyl}phenyl)pyridine-3-carboxamide], the IC50 came to 1.6 nM at DDR1 protein and 54 nM in assay [1].
For `Nc1ncc(/C=C(\F)c2cc(C(=O)N[C@H]3C[C@H](OC(F)(F)F)C[C@@H]3O)ccc2OC(F)F)cn1` [Example 39, 3-[(1Z)-2-(2-Aminopyrimidin-5-yl)-1-fluoroethenyl]-4-(difluoromethoxy)-N-[(1S,2S,4S)-2-hydroxy-4-(trifluoromethoxy)cyclopentyl]benzamide], the IC50 on DDR1 protein was 0.39 nM; in assay [1], 3.9 nM.
For the molecule `CCc1ccc(C(=O)N[C@H](CO)CCOC(F)(F)F)cc1NC(=O)c1cnc(CC2CC2)s1` [Example 47, 2-(Cyclopropylmethyl)-N-(2-ethyl-5-{[(2S)-1-hydroxy-4-(trifluoromethoxy)butan-2-yl]carbamoyl}phenyl)-1,3-thiazole-5-carboxamide], the IC50 at DDR1 protein was 51 nM; in assay [1] it was 59 nM.
For `NC(=O)c1ncc2cc(-c3cc(C(=O)N[C@H]4CC(F)(F)CC[C@@H]4O)ccc3C(F)(F)F)ccn12` [Example 27, 7-(5-{[(1S,2S)-5,5-Difluoro-2-hydroxycyclohexyl]carbamoyl}-2-(trifluoromethyl)phenyl)imidazo[1,5-a]pyridine-3-carboxamide], in that order: 4 nM and 10 nM.
Regarding `CCc1ccc(C(=O)N[C@H]2C[C@H](OC(F)(F)F)C[C@@H]2O)cc1NC(=O)c1cnc(C2CC2)s1` [Example 46, 2-Cyclopropyl-N-(2-ethyl-5-{[(1S,2S,4S)-2-hydroxy-4-(trifluoromethoxy)cyclopentyl]carbamoyl}phenyl)-1,3-thiazole-5-carboxamide], the figures for the IC50 (at DDR1 protein; in assay [1]) were 9.1 nM and 44 nM, respectively.
For the molecule `CCc1ncc(C(=O)N[C@H]2C[C@H](OC(F)(F)F)C[C@@H]2O)cc1/C=C(\F)c1cnc(N)nc1` [Example 11, 5-[(1Z)-2-(2-Aminopyrimidin-5-yl)-2-fluoroethenyl]-6-ethyl-N-[(1S,2S,4S)-2-hydroxy-4-(trifluoromethoxy)cyclopentyl]pyridine-3-carboxamide], the IC50 at DDR1 protein was 22 nM; in assay [1], 120 nM.
Consider `Nc1ncc(/C(F)=C/c2cc(C(=O)N[C@H]3CC(F)(F)CC[C@@H]3O)ccc2OC(F)F)cn1` [Example 37, 3-[(1Z)-2-(2-Aminopyrimidin-5-yl)-2-fluoroethenyl]-N-[(1S,2S)-5,5-difluoro-2-hydroxycyclohexyl]-4-(difluoromethoxy)benzamide], for which the IC50 came out at 15 nM on DDR1 protein and 40 nM in assay [1].
For `NC(=O)c1ncc2cc(-c3cc(C(=O)N[C@H](CO)CCOC(F)(F)F)ccc3C(F)(F)F)ccn12` [Example 31, 7-(5-{[(2S)-1-Hydroxy-4-(trifluoromethoxy)butan-2-yl]carbamoyl}-2-(trifluoromethyl)phenyl)imidazo[1,5-a]pyridine-3-carboxamide], in that order: 2.2 nM and 5.3 nM.
`O=C(N[C@H]1CC2(CC2)C[C@@H]1O)c1ccc(OC(F)F)c(C#Cc2cncnc2)c1` [Example 18, 4-(Difluoromethoxy)-N-[(5S,6S)-6-hydroxyspiro[2.4]heptan-5-yl]-3-[2-(pyrimidin-5-yl)ethynyl]benzamide]: the values for the IC50 (on DDR1 protein; in assay [1]) were 22 nM and 150 nM, respectively.
On to `CCc1ccc(C(=O)N[C@H](CO)CCOC(F)(F)F)cc1NC(=O)c1cncc(OCC2CC2)c1` [Example 43, 5-(Cyclopropylmethoxy)-N-(2-ethyl-5-{[(2S)-1-hydroxy-4-(trifluoromethoxy)butan-2-yl]carbamoyl}phenyl)pyridine-3-carboxamide], for which the figures for the IC50 (on DDR1 protein; in assay [1]) were 68 nM and 240 nM, respectively.
As to `O=C(N[C@H]1C[C@H](OC(F)(F)F)C[C@@H]1O)c1ccc(OC(F)F)c(C#Cc2cncc(F)c2)c1` [Example 2, 4-(Difluoromethoxy)-3-[2-(5-fluoropyridin-3-yl)ethynyl]-N-[(1S,2S,4S)-2-hydroxy-4-(trifluoromethoxy)cyclopentyl]benzamide], the IC50 amounted to 3.6 nM at DDR1 protein and 38 nM in assay [1].
